Organism: Rattus norvegicus
Test: Open TG-GATES - Regimen: Single
Type: toxicity, organism-based, Sprague-Dawley
Set-up: regimen Single, gender Male, age 6 weeks
Conditions: in vivo, po, 0 mg/kg, route gavage, dose level Control; for APTT / Bas / Eos / Fbg / Hb / Ht / Lym / MCH / MCHC / MCV / Mono / Neu / PT / Plat / RBC / Ret / WBC: tissue Blood; for KIDNEY_L / KIDNEY_R / KIDNEY_TOTAL: tissue Kidney; for LIVER: tissue Liver; for A/G / ALP / ALT / AST / BUN / CRE / Ca / Cl / DBIL / GLC / IP / K / LDH / Na / PL / RALB / TBIL / TC / TG / TP / gamma-GTP: tissue Plasma

SMILES: CCOc1ccc(NC(=O)CC(C)O)cc1 (stereo unspecified) [BUCETIN]
- TERMINAL_BW (9 h): 208.6 g
- APTT (9 h): 17.3 s
- Bas (9 h): 0%
- Eos (9 h): 1%
- Fbg (9 h): 299.8 mg/dL
- Hb (9 h): 13 g/dL
- Ht (9 h): 39.1%
- Lym (9 h): 79.8%
- MCH (9 h): 21.3 pg
- MCHC (9 h): 33.2%
- MCV (9 h): 64.3 fL
- Mono (9 h): 2.6%
- Neu (9 h): 16.6%
- PT (9 h): 14.3 s
- Plat (9 h): 114.6 x10_4/uL
- RBC (9 h): 608.6 x10_4/ul
- Ret (9 h): 8.1%
- WBC (9 h): 87.3 x10_2/uL
- KIDNEY_L (9 h): 0.9 g
- KIDNEY_R (9 h): 0.9 g
- KIDNEY_TOTAL (9 h): 1.8 g
- LIVER (9 h): 8.3 g
- A/G (9 h): 0.9
- ALP (9 h): 1557.4 IU/L
- ALT (9 h): 32.8 IU/L
- AST (9 h): 68.6 IU/L
- BUN (9 h): 9.4 mg/dL
- CRE (9 h): 0.2 mg/dL
- Ca (9 h): 10.5 mg/dL
- Cl (9 h): 106 meq/L
- DBIL (9 h): 0.018 mg/dL
- GLC (9 h): 178.6 mg/dL
- IP (9 h): 9.8 mg/dL
- K (9 h): 4 meq/L
- LDH (9 h): 70.2 IU/L
- Na (9 h): 142.2 meq/L
- PL (9 h): 135 mg/dL
- RALB (9 h): 2.6 g/dL
- TBIL (9 h): 0.06 mg/dL
- TC (9 h): 73.8 mg/dL
- TG (9 h): 57.2 mg/dL
- TP (9 h): 5.4 g/dL
- gamma-GTP (9 h): 1.4 IU/L
- TERMINAL_BW (24 h): 224 g
- APTT (24 h): 18.6 s
- Bas (24 h): 0.2%
- Eos (24 h): 0.8%
- Fbg (24 h): 290.6 mg/dL
- Hb (24 h): 13.4 g/dL
- Ht (24 h): 40.5%
- Lym (24 h): 79%
- MCH (24 h): 21.3 pg
- MCHC (24 h): 33%
- MCV (24 h): 64.4 fL
- Mono (24 h): 2.6%
- Neu (24 h): 16.6%
- PT (24 h): 14.3 s
- Plat (24 h): 121.1 x10_4/uL
- RBC (24 h): 628.8 x10_4/ul
- Ret (24 h): 7.6%
- WBC (24 h): 102.9 x10_2/uL
- KIDNEY_L (24 h): 1 g
- KIDNEY_R (24 h): 1 g
- KIDNEY_TOTAL (24 h): 2 g
- LIVER (24 h): 10.4 g
- A/G (24 h): 0.9
- ALP (24 h): 1587.4 IU/L
- ALT (24 h): 40.4 IU/L
- AST (24 h): 72.2 IU/L
- BUN (24 h): 14.6 mg/dL
- CRE (24 h): 0.2 mg/dL
- Ca (24 h): 11.1 mg/dL
- Cl (24 h): 105.2 meq/L
- DBIL (24 h): 0.022 mg/dL
- GLC (24 h): 180.8 mg/dL
- IP (24 h): 7.9 mg/dL
- K (24 h): 4.1 meq/L
- LDH (24 h): 74.6 IU/L
- Na (24 h): 143.6 meq/L
- PL (24 h): 148.2 mg/dL
- RALB (24 h): 2.6 g/dL
- TBIL (24 h): 0.05 mg/dL
- TC (24 h): 76.2 mg/dL
- TG (24 h): 104.2 mg/dL
- TP (24 h): 5.6 g/dL
- gamma-GTP (24 h): 1.2 IU/L
